In article PMC10077475, “DG9-conjugated morpholino rescues phenotype in SMA mice by reaching the CNS via a subcutaneous administration” (JCI Insight, 2023):

Tested on: severe SMA mouse model (Taiwanese model)
Assay: Survival of severe SMA mice after a single subcutaneous injection at PD0
Type: in vivo
Conditions: single subcutaneous injection at PD0, 40 mg/kg, until humane endpoint
Procedure: To examine whether DG9 peptide can increase the efficacy of PMO, we conjugated it to an 18-mer PMO with a sequence identical to nusinersen. The DG9-PMO, unconjugated PMO, and MOE were injected into SMA model mice [Cg-Tg(SMN2)2HungSmn1^tm1Hung/J; abbreviated as Smn^–/– SMN2^Tg/Tg; commonly called the Taiwanese model]. We also used an arginine-rich peptide (R6G) that is currently being explored in clinical trials for Duchenne muscular dystrophy (DMD) and used in preclinical studies for Hutchinson-Gilford progeria syndrome ([37], [38]). The benchmark control peptide R6G was conjugated to the same PMO sequence used in our study (R6G-PMO). […] We subcutaneously injected mice with the AOs or saline (nontreated, NT) administered at postnatal day 0 (PD0) at 2 doses: 40 mg/kg or 80 mg/kg. In our preliminary experiments, we also tested lower doses of 10 and 20 mg/kg (data not shown). […] The survival was recorded until a humane endpoint was reached. For the 40 mg/kg doses, the median survival was 12 days for unconjugated PMO, 15.5 days for MOE, and 17 days for R6G-PMO, which was increased to 58 days for DG9-PMO treatment (Figure 1A and Supplemental Figure 1A; supplemental material available online with this article; https://doi.org/10.1172/jci.insight.160516DS1). The median survival increased to 57 days for unconjugated PMO, 64 days for MOE, and 121 days for DG9-PMO at the higher dose of 80 mg/kg (Figure 1A). […] In spite of no statistical difference between DG9-PMO and MOE groups, the median survival of DG9-PMO still was higher than MOE, as only 1 mouse was alive until PD200 following a 40 mg/kg injection of MOE.
SMA-transgenic mice [JAX stock 005058 FVB.Cg-Tg(SMN2)2HungSmn1^tm1Hung/J] (Smn^–/–; SMN2^Tg/Tg), also known as Taiwanese mice, were purchased from Jackson Laboratory. Heterozygous mice for Smn1 (Smn1^+/–; SMN2^–/–) generated by us were crossed with mice homozygous for Smn1 Smn^–/–; SMN2^Tg/Tg generated by us to obtain the SMA mice (Smn^–/–; SMN2^Tg/–) or the heterozygous healthy control (Smn1^+/–; SMN2^Tg/–). The SMA mice display a severe overt phenotype similar to patients with SMA type I. The mice were genotyped using a PCR assay on genomic DNA isolated from tail biopsies using the Phire Tissue Direct PCR Kit (Thermo Fisher Scientific) as per the manufacturer’s instructions. The DNA was amplified using the primers described in Supplemental Table 1 using the condition Mouse Smn: 98°C/5 minutes → 98°C/5 s 58°C/10 s 72°C/10 s × 35 cycles → 72°C/1 minute.
Injections were carried out using a 30-gauge Hamilton syringe. SMA mice identified following genotyping were randomly assigned to a treatment group. The researcher injecting mice was blinded to the treatment. SMA neonates were subcutaneously injected with 40 or 80 mg/kg of AOs at PD0, while NT and heterozygous control mice were injected with saline (n = 10–49) per group. Tissues including the quadriceps muscle, liver, kidney, spleen, diaphragm, intercostal muscle, heart, brain, and spinal cord were collected and snap-frozen in dry ice– cooled isopentane, then subsequently stored at –80°C.

## RRRRRRG [R6G-PMO]
  median survival: 17 days
